From patent publication US12702149B2, “Resistant starch from natural sources and their preparation” (Arjuna Natural Private Limited, priority 2019, dated 2026)

Test system: carrageenan induced paw oedema
Test: Anti-inflammatory study, carrageenan induced paw oedema model
Assay type: in vivo, Wistar rats
Details: oral, fibres 50 mg/Kg, Diclofenac 10 mg/Kg
Description: Anti-inflammatory study of turmeric dietary fibre was conducted in Wistar rats. Rats were divided into 5 groups and orally administered with study samples. • Group 1: consisted of control animals and were fed with vehicle (1% tween 80) • Group 2: animals which were given Diclofenac standard (10 mg Diclofenac/Kg body weight) • Group 3: Animals were given turmeric dietary fibre having 80% total dietary fibre (50 mg/Kg) • Group 4: Animals were given soluble dietary fibre from Guar beans (50 mg/Kg) • Group 5: Animals were given modified starch from tapioca (50 mg/Kg) Then after 30 mins, the treated rats were challenged with carrageenan (0.1 ml, 1% carrageenan suspension in 0.9% NaCl solution) by injecting to the animals in sub plantar region of the hind paw. Carrageenan is a chemical known to induce inflammation in rats. The paw volume was determined for all the animals at different time intervals (base line, 3 hr, 6 Hr) after carrageenan injection using digital plethysmometer and the percentage inhibition of inflammation was calculated using following formula: Percentage inhibition=(1−D/C)×100 • D-Represents the difference in paw volume from baseline in test/standard group. • C-Represents the difference in paw volume from baseline in the control group. A higher value of percentage inhibition indicated less paw volume in the animals as compared to control animals and more anti-inflammatory activity.

O=C(O)Cc1ccccc1Nc1c(Cl)cccc1Cl [Diclofenac]
Average percentage inhibition of inflammation (average of 3 Hr and 6 Hr): 39%
Percentage inhibition of inflammation 3 Hr (paw volume 3 hr after carrageenan): 46%
Percentage inhibition of inflammation 6 Hr (paw volume 6 hr after carrageenan): 32%
